# Reference: patent publication US20020111274A1, “1-alkyl-3-[1-(substituted phenyl) benzotriazol-6-yl] uracils” (BASF Aktiengesellschaft, priority 2000, published 2002)
# Experiments:
# Parameters in all cases: scale not given here
# ZEAMX Corn, Field [1] = test: Preemergence herbicidal evaluation, ZEAMX; type: in vivo, Zea mays, L. (Sammel-Bezeichnung); conditions: preemergence
# In short: (§1)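 Visual ratings were taken four to five weeks after application. Before that, cups sown with seed in potting soil received a spray of compound dissolved in aqueous acetone, equivalent to about 0.013 to 0.800 kg/ha, and stood on greenhouse benches under conventional care.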
# ABUTH Velvetleaf [2] = test: Preemergence herbicidal evaluation, ABUTH; type: in vivo, Abutilon theophrasti, Medic.; conditions: preemergence
# In short: as §1
# GLXMAW Soybean, Williams [3] = test: Preemergence herbicidal evaluation, GLXMAW; type: in vivo, Glycine max, (L.) Merr. cv Williams; conditions: preemergence
# In short: as §1
# AMBEL Ragweed, Common [4] = test: Postemergence herbicidal evaluation, AMBEL; type: in vivo, Ambrosia artemisifolia, L.; conditions: postemergence spray, rated about two-three weeks after treatment
# In short: (§2)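 Postemergence spray, 40 psi nozzle, on ~2-week seedlings. Carrier: acetone/water 80/20, 1.0% methylated seed oil; dose ~0.006–0.400 kg/ha. Scored visually at 2–3 weeks.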
# ECHOG Barnyardgrass [5] = test: Preemergence herbicidal evaluation, ECHOG; type: in vivo, Echinochloa crus-galli, (L.) Beau; conditions: preemergence
# In short: as §1
# ZEAMX Corn, Field [6] = test: Postemergence herbicidal evaluation, ZEAMX; type: in vivo, Zea mays, L. (Sammel-Bezeichnung); conditions: postemergence spray, rated about two-three weeks after treatment
# In short: as §2
# CASOB Sicklepod [7] = test: Postemergence herbicidal evaluation, CASOB; type: in vivo, Cassia obtusifolia, L.; conditions: postemergence spray, rated about two-three weeks after treatment
# In short: as §2
# [8] = tested on: TRZAWR Wheat, Winter, cv Riband; test: Preemergence herbicidal evaluation, TRZAWR; type: in vivo, Triticum aestivum; conditions: preemergence
# In short: as §1
# GLXMAW Soybean, Williams [9] = test: Postemergence herbicidal evaluation, GLXMAW; type: in vivo, Glycine max, (L.) Merr. cv Williams; conditions: postemergence spray, rated about two-three weeks after treatment
# In short: as §2
# ORYSAT Rice, Tebonnet [10] = test: Preemergence herbicidal evaluation, ORYSAT; type: in vivo, Oryza sativa, (L.); conditions: preemergence
# In short: as §1
# GALAP Galium [11] = test: Postemergence herbicidal evaluation, GALAP; type: in vivo, Galium aparine; conditions: postemergence spray, rated about two-three weeks after treatment
# In short: as §2
# SETVI Foxtail, Green [12] = test: Postemergence herbicidal evaluation, SETVI; type: in vivo, Setaria viridis, (L.) Beau; conditions: postemergence spray, rated about two-three weeks after treatment
# In short: as §2
# [13] = tested on: IPOHE Morningglory, Ivyleaf; test: Preemergence herbicidal evaluation, IPOHE; type: in vivo, Ipomoea hederacea, (L.) Jacq.; conditions: preemergence
# In short: as §1
# [14] = tested on: CHEAL Lambsquarters, Common; test: Postemergence herbicidal evaluation, CHEAL; type: in vivo, Chenopodium album, L.; conditions: postemergence spray, rated about two-three weeks after treatment
# In short: as §2
# ORYSAT Rice, Tebonnet [15] = test: Postemergence herbicidal evaluation, ORYSAT; type: in vivo, Oryza sativa, (L.); conditions: postemergence spray, rated about two-three weeks after treatment
# In short: as §2
# ECHOG Barnyardgrass [16] = test: Postemergence herbicidal evaluation, ECHOG; type: in vivo, Echinochloa crus-galli, (L.) Beau; conditions: postemergence spray, rated about two-three weeks after treatment
# In short: as §2
# [17] = tested on: CHEAL Lambsquarters, Common; test: Preemergence herbicidal evaluation, CHEAL; type: in vivo, Chenopodium album, L.; conditions: preemergence
# In short: as §1
# [18] = tested on: IPOHE Morningglory, Ivyleaf; test: Postemergence herbicidal evaluation, IPOHE; type: in vivo, Ipomoea hederacea, (L.) Jacq.; conditions: postemergence spray, rated about two-three weeks after treatment
# In short: as §2
# AMBEL Ragweed, Common [19] = test: Preemergence herbicidal evaluation, AMBEL; type: in vivo, Ambrosia artemisifolia, L.; conditions: preemergence
# In short: as §1
# SETVI Foxtail, Green [20] = test: Preemergence herbicidal evaluation, SETVI; type: in vivo, Setaria viridis, (L.) Beau; conditions: preemergence
# In short: as §1
# ABUTH Velvetleaf [21] = test: Postemergence herbicidal evaluation, ABUTH; type: in vivo, Abutilon theophrasti, Medic.; conditions: postemergence spray, rated about two-three weeks after treatment
# In short: as §2
# GALAP Galium [22] = test: Preemergence herbicidal evaluation, GALAP; type: in vivo, Galium aparine; conditions: preemergence
# In short: as §1
# [23] = tested on: TRZAWR Wheat, Winter, cv Riband; test: Postemergence herbicidal evaluation, TRZAWR; type: in vivo, Triticum aestivum; conditions: postemergence spray, rated about two-three weeks after treatment
# In short: as §2
# CASOB Sicklepod [24] = test: Preemergence herbicidal evaluation, CASOB; type: in vivo, Cassia obtusifolia, L.; conditions: preemergence
# In short: as §1
structure (smiles),measurement,setting,value
C#CCOC(=O)COc1ccc(C)c(-n2nnc3cc(F)c(-n4c(=O)cc(C(F)(F)F)n(C)c4=O)cc32)c1 [Example 36],ZEAMX herbicidal rating,"ZEAMX Corn, Field [1]; rate 0.016 kg/ha",0.0
same,ZEAMX herbicidal rating,"ZEAMX Corn, Field [1]; rate 0.032 kg/ha",0.0
same,ZEAMX herbicidal rating,"ZEAMX Corn, Field [1]; rate 0.062 kg/ha",0.0
same,ZEAMX herbicidal rating,"ZEAMX Corn, Field [1]; rate 0.125 kg/ha",0.0
same,ABUTH herbicidal rating,ABUTH Velvetleaf [2]; rate 0.016 kg/ha,0.0
same,ABUTH herbicidal rating,ABUTH Velvetleaf [2]; rate 0.032 kg/ha,1.5
same,ABUTH herbicidal rating,ABUTH Velvetleaf [2]; rate 0.062 kg/ha,3.0
same,ABUTH herbicidal rating,ABUTH Velvetleaf [2]; rate 0.125 kg/ha,8.0
same,GLXMAW herbicidal rating,"GLXMAW Soybean, Williams [3]; rate 0.016 kg/ha",0.0
same,GLXMAW herbicidal rating,"GLXMAW Soybean, Williams [3]; rate 0.032 kg/ha",0.0
same,GLXMAW herbicidal rating,"GLXMAW Soybean, Williams [3]; rate 0.062 kg/ha",0.0
same,GLXMAW herbicidal rating,"GLXMAW Soybean, Williams [3]; rate 0.125 kg/ha",0.0
same,Postemergence herbicidal rating AMBEL,"AMBEL Ragweed, Common [4]; 0.008 kg/ha",2.0
same,Postemergence herbicidal rating AMBEL,"AMBEL Ragweed, Common [4]; 0.016 kg/ha",4.0
same,Postemergence herbicidal rating AMBEL,"AMBEL Ragweed, Common [4]; 0.032 kg/ha",5.0
same,Postemergence herbicidal rating AMBEL,"AMBEL Ragweed, Common [4]; 0.062 kg/ha",5.0
same,ECHCG herbicidal rating,ECHOG Barnyardgrass [5]; rate 0.016 kg/ha,0.0
same,ECHCG herbicidal rating,ECHOG Barnyardgrass [5]; rate 0.032 kg/ha,0.0
same,ECHCG herbicidal rating,ECHOG Barnyardgrass [5]; rate 0.062 kg/ha,0.0
same,ECHCG herbicidal rating,ECHOG Barnyardgrass [5]; rate 0.125 kg/ha,0.0
same,Postemergence herbicidal rating ZEAMX,"ZEAMX Corn, Field [6]; 0.008 kg/ha",7.5
same,Postemergence herbicidal rating ZEAMX,"ZEAMX Corn, Field [6]; 0.016 kg/ha",7.5
same,Postemergence herbicidal rating ZEAMX,"ZEAMX Corn, Field [6]; 0.032 kg/ha",8.0
same,Postemergence herbicidal rating ZEAMX,"ZEAMX Corn, Field [6]; 0.062 kg/ha",8.5
same,Postemergence herbicidal rating CASOB,CASOB Sicklepod [7]; 0.008 kg/ha,0.0
same,Postemergence herbicidal rating CASOB,CASOB Sicklepod [7]; 0.016 kg/ha,0.0
same,Postemergence herbicidal rating CASOB,CASOB Sicklepod [7]; 0.032 kg/ha,0.0
same,Postemergence herbicidal rating CASOB,CASOB Sicklepod [7]; 0.062 kg/ha,0.0
same,TRZAWR herbicidal rating,[8]; rate 0.016 kg/ha,0.0
same,TRZAWR herbicidal rating,[8]; rate 0.032 kg/ha,0.0
same,TRZAWR herbicidal rating,[8]; rate 0.062 kg/ha,0.0
same,TRZAWR herbicidal rating,[8]; rate 0.125 kg/ha,0.0
same,Postemergence herbicidal rating GLXMAW,"GLXMAW Soybean, Williams [9]; 0.008 kg/ha",3.5
same,Postemergence herbicidal rating GLXMAW,"GLXMAW Soybean, Williams [9]; 0.016 kg/ha",4.0
same,Postemergence herbicidal rating GLXMAW,"GLXMAW Soybean, Williams [9]; 0.032 kg/ha",4.0
same,Postemergence herbicidal rating GLXMAW,"GLXMAW Soybean, Williams [9]; 0.062 kg/ha",4.5
same,ORYSAT herbicidal rating,"ORYSAT Rice, Tebonnet [10]; rate 0.016 kg/ha",0.0
same,ORYSAT herbicidal rating,"ORYSAT Rice, Tebonnet [10]; rate 0.032 kg/ha",0.0
same,ORYSAT herbicidal rating,"ORYSAT Rice, Tebonnet [10]; rate 0.062 kg/ha",1.0
same,ORYSAT herbicidal rating,"ORYSAT Rice, Tebonnet [10]; rate 0.125 kg/ha",1.5
same,Postemergence herbicidal rating GALAP,GALAP Galium [11]; 0.008 kg/ha,0.0
same,Postemergence herbicidal rating GALAP,GALAP Galium [11]; 0.016 kg/ha,0.0
same,Postemergence herbicidal rating GALAP,GALAP Galium [11]; 0.032 kg/ha,2.0
same,Postemergence herbicidal rating GALAP,GALAP Galium [11]; 0.062 kg/ha,3.0
same,Postemergence herbicidal rating SETVI,"SETVI Foxtail, Green [12]; 0.008 kg/ha",4.0
same,Postemergence herbicidal rating SETVI,"SETVI Foxtail, Green [12]; 0.016 kg/ha",4.0
same,Postemergence herbicidal rating SETVI,"SETVI Foxtail, Green [12]; 0.032 kg/ha",7.0
same,Postemergence herbicidal rating SETVI,"SETVI Foxtail, Green [12]; 0.062 kg/ha",9.0
same,IPOHE herbicidal rating,[13]; rate 0.016 kg/ha,0.0
same,IPOHE herbicidal rating,[13]; rate 0.032 kg/ha,0.0
same,IPOHE herbicidal rating,[13]; rate 0.062 kg/ha,0.0
same,IPOHE herbicidal rating,[13]; rate 0.125 kg/ha,4.0
same,Postemergence herbicidal rating CHEAL,[14]; 0.008 kg/ha,0.0
same,Postemergence herbicidal rating CHEAL,[14]; 0.016 kg/ha,0.0
same,Postemergence herbicidal rating CHEAL,[14]; 0.032 kg/ha,2.0
same,Postemergence herbicidal rating CHEAL,[14]; 0.062 kg/ha,4.0
same,Postemergence herbicidal rating ORYSAT,"ORYSAT Rice, Tebonnet [15]; 0.008 kg/ha",1.5
same,Postemergence herbicidal rating ORYSAT,"ORYSAT Rice, Tebonnet [15]; 0.016 kg/ha",1.0
same,Postemergence herbicidal rating ORYSAT,"ORYSAT Rice, Tebonnet [15]; 0.032 kg/ha",2.5
same,Postemergence herbicidal rating ORYSAT,"ORYSAT Rice, Tebonnet [15]; 0.062 kg/ha",4.0
same,Postemergence herbicidal rating ECHCG,ECHOG Barnyardgrass [16]; 0.008 kg/ha,0.0
same,Postemergence herbicidal rating ECHCG,ECHOG Barnyardgrass [16]; 0.016 kg/ha,0.0
same,Postemergence herbicidal rating ECHCG,ECHOG Barnyardgrass [16]; 0.032 kg/ha,0.0
same,Postemergence herbicidal rating ECHCG,ECHOG Barnyardgrass [16]; 0.062 kg/ha,3.0
same,CHEAL herbicidal rating,[17]; rate 0.016 kg/ha,0.0
same,CHEAL herbicidal rating,[17]; rate 0.032 kg/ha,6.5
same,CHEAL herbicidal rating,[17]; rate 0.062 kg/ha,9.0
same,CHEAL herbicidal rating,[17]; rate 0.125 kg/ha,9.0
same,Postemergence herbicidal rating IPOHE,[18]; 0.008 kg/ha,5.0
same,Postemergence herbicidal rating IPOHE,[18]; 0.016 kg/ha,8.0
same,Postemergence herbicidal rating IPOHE,[18]; 0.032 kg/ha,9.0
same,Postemergence herbicidal rating IPOHE,[18]; 0.062 kg/ha,9.0
same,AMBEL herbicidal rating,"AMBEL Ragweed, Common [19]; rate 0.016 kg/ha",0.0
same,AMBEL herbicidal rating,"AMBEL Ragweed, Common [19]; rate 0.032 kg/ha",2.0
same,AMBEL herbicidal rating,"AMBEL Ragweed, Common [19]; rate 0.062 kg/ha",2.0
same,AMBEL herbicidal rating,"AMBEL Ragweed, Common [19]; rate 0.125 kg/ha",5.0
same,SETVI herbicidal rating,"SETVI Foxtail, Green [20]; rate 0.016 kg/ha",0.0
same,SETVI herbicidal rating,"SETVI Foxtail, Green [20]; rate 0.032 kg/ha",0.0
same,SETVI herbicidal rating,"SETVI Foxtail, Green [20]; rate 0.062 kg/ha",0.0
same,SETVI herbicidal rating,"SETVI Foxtail, Green [20]; rate 0.125 kg/ha",3.0
same,Postemergence herbicidal rating ABUTH,ABUTH Velvetleaf [21]; 0.008 kg/ha,2.0
same,Postemergence herbicidal rating ABUTH,ABUTH Velvetleaf [21]; 0.016 kg/ha,7.0
same,Postemergence herbicidal rating ABUTH,ABUTH Velvetleaf [21]; 0.032 kg/ha,9.0
same,Postemergence herbicidal rating ABUTH,ABUTH Velvetleaf [21]; 0.062 kg/ha,9.0
same,GALAP herbicidal rating,GALAP Galium [22]; rate 0.016 kg/ha,0.0
same,GALAP herbicidal rating,GALAP Galium [22]; rate 0.032 kg/ha,0.0
same,GALAP herbicidal rating,GALAP Galium [22]; rate 0.062 kg/ha,0.0
same,GALAP herbicidal rating,GALAP Galium [22]; rate 0.125 kg/ha,0.0
same,Postemergence herbicidal rating TRZAWR,[23]; 0.008 kg/ha,4.5
same,Postemergence herbicidal rating TRZAWR,[23]; 0.016 kg/ha,5.0
same,Postemergence herbicidal rating TRZAWR,[23]; 0.032 kg/ha,6.0
same,Postemergence herbicidal rating TRZAWR,[23]; 0.062 kg/ha,7.0
same,CASOB herbicidal rating,CASOB Sicklepod [24]; rate 0.016 kg/ha,0.0
same,CASOB herbicidal rating,CASOB Sicklepod [24]; rate 0.032 kg/ha,0.0
same,CASOB herbicidal rating,CASOB Sicklepod [24]; rate 0.062 kg/ha,0.0
same,CASOB herbicidal rating,CASOB Sicklepod [24]; rate 0.125 kg/ha,0.0
